Measured values from PubChem BioAssay (NCI).
Where “and” joins values, the source holds several entries; their conditions need not be identical. Identical values can stand only once.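 Test compounds were applied to cells in 96-well plates for 48 hours at 5 doses. The concentration for 50% growth inhibition is given as GI50. TGI: total growth inhibition.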

Tests used:
Assay in all cases: NCI tumour cell line growth inhibition, 48 h
A498 renal = system: A498 renal
UACC-62 melanoma = system: UACC-62 melanoma
RXF 393 renal = system: RXF 393 renal
SK-OV-3 ovarian = system: SK-OV-3 ovarian
HL-60(TB) leukemia = system: HL-60(TB) leukemia
HOP-92 NSCLC = system: HOP-92 NSCLC
DLD-1 colon = system: DLD-1 colon
MCF7 breast = system: MCF7 breast
SW-620 colon = system: SW-620 colon
SNB-75 CNS = system: SNB-75 CNS
786-0 renal = system: 786-0 renal
HOP-18 NSCLC = system: HOP-18 NSCLC
CCRF-CEM leukemia = system: CCRF-CEM leukemia
SNB-78 CNS = system: SNB-78 CNS
IGROV1 ovarian = system: IGROV1 ovarian
NCI-H23 lung = system: NCI-H23 lung
HS 578T breast = system: HS 578T breast
EKVX NSCLC = system: EKVX NSCLC
HT29 colon = system: HT29 colon
NCI-H522 lung = system: NCI-H522 lung
NCI-H226 lung = system: NCI-H226 lung
SK-MEL-28 melanoma = system: SK-MEL-28 melanoma
SF-539 CNS = system: SF-539 CNS
PC-3 prostate = system: PC-3 prostate
NCI/ADR-RES ovarian = system: NCI/ADR-RES ovarian
HOP-62 NSCLC = system: HOP-62 NSCLC
P388/ADR leukemia = system: P388/ADR leukemia
MDA-N = system: MDA-N
OVCAR-4 ovarian = system: OVCAR-4 ovarian
SF-268 CNS = system: SF-268 CNS
MALME-3M melanoma = system: MALME-3M melanoma
XF 498 CNS = system: XF 498 CNS
COLO 205 colon = system: COLO 205 colon
SNB-19 CNS = system: SNB-19 CNS
DU-145 prostate = system: DU-145 prostate
SN12C renal = system: SN12C renal
HCT-15 colon = system: HCT-15 colon
SF-295 CNS = system: SF-295 CNS
UO-31 renal = system: UO-31 renal
MOLT-4 leukemia = system: MOLT-4 leukemia
LOX IMVI melanoma = system: LOX IMVI melanoma
M14 melanoma = system: M14 melanoma
UACC-257 melanoma = system: UACC-257 melanoma
KM12 colon = system: KM12 colon
HCT-116 colon = system: HCT-116 colon
MDA-MB-231 breast = system: MDA-MB-231 breast
DMS 114 small cell lung = system: DMS 114 small cell lung
OVCAR-8 ovarian = system: OVCAR-8 ovarian
ACHN renal = system: ACHN renal
OVCAR-3 ovarian = system: OVCAR-3 ovarian
U251 CNS = system: U251 CNS
SK-MEL-5 melanoma = system: SK-MEL-5 melanoma
CAKI-1 renal = system: CAKI-1 renal
RPMI-8226 leukemia = system: RPMI-8226 leukemia
T-47D breast = system: T-47D breast
HCC-2998 colon = system: HCC-2998 colon
SR leukemia = system: SR leukemia
NCI-H460 lung = system: NCI-H460 lung
M19-MEL melanoma = system: M19-MEL melanoma
K-562 leukemia = system: K-562 leukemia
OVCAR-5 ovarian = system: OVCAR-5 ovarian
P388 leukemia = system: P388 leukemia
BT-549 breast = system: BT-549 breast
A549 NSCLC = system: A549 NSCLC
MDA-MB-435 = system: MDA-MB-435
TK-10 renal = system: TK-10 renal
KM20L2 colon = system: KM20L2 colon
SN12K1 renal = system: SN12K1 renal
DMS 273 small cell lung = system: DMS 273 small cell lung
SK-MEL-2 melanoma = system: SK-MEL-2 melanoma

**Q.** What does the source list for `C[C@@](O)(/C=C/[C@H]1CC=CC(=O)O1)[C@@H](C[C@@H](O)\C=C/C=C\C=C\CO)OP(=O)(O)O`?
**A.** GI50 (A498 renal): 40.2 µM; TGI (A498 renal): 83.8 µM and 60.3 µM; GI50 (UACC-62 melanoma): 6.51 µM; TGI (UACC-62 melanoma): 28 µM and 11 µM; TGI (RXF 393 renal): 23.8 µM and 13 µM; TGI (SK-OV-3 ovarian): 31.4 µM; TGI (HL-60(TB) leukemia): 2990 nM; TGI (HOP-92 NSCLC): 10.6 µM; TGI (DLD-1 colon): 95.9 µM; GI50 (MCF7 breast): 5.01 µM; TGI (MCF7 breast): 13.9 µM and 50.4 µM; TGI (SW-620 colon): 70.9 µM; GI50 (SNB-75 CNS): 315 µM and 39.4 µM; TGI (786-0 renal): 20.2 µM; GI50 (HOP-18 NSCLC): 15.9 µM and 42.2 µM; TGI (HOP-18 NSCLC): 28.5 µM and 127 µM; GI50 (CCRF-CEM leukemia): 3.52 µM; TGI (CCRF-CEM leukemia): 335 µM and 34.1 µM; GI50 (SNB-78 CNS): 11.3 µM; TGI (SNB-78 CNS): 60.8 µM and > 58.8 µM; TGI (IGROV1 ovarian): 15.4 µM; GI50 (NCI-H23 lung): 15 µM; TGI (NCI-H23 lung): 91.6 µM and 68.3 µM; TGI (HS 578T breast): 22.6 µM; GI50 (EKVX NSCLC): 14.7 µM; TGI (EKVX NSCLC): 65.6 µM and 49.1 µM; TGI (HT29 colon): 6.33 µM; TGI (NCI-H522 lung): 66.1 µM and 60.1 µM; TGI (NCI-H226 lung): 18.7 µM; GI50 (SK-MEL-28 melanoma): 8.69 µM; TGI (SK-MEL-28 melanoma): 38.8 µM and 25.3 µM; GI50 (SF-539 CNS): 5.28 µM; TGI (SF-539 CNS): 11.5 µM and 23 µM; TGI (PC-3 prostate): 12.4 µM; TGI (NCI/ADR-RES ovarian): 143 µM; GI50 (HOP-62 NSCLC): 10.1 µM; TGI (HOP-62 NSCLC): 29.5 µM and 12.1 µM; GI50 (P388/ADR leukemia): 963 nM and 989 nM; TGI (MDA-N): 8.08 µM; TGI (OVCAR-4 ovarian): 25.5 µM; GI50 (SF-268 CNS): 12.2 µM; TGI (SF-268 CNS): 83.2 µM and 99.1 µM; GI50 (MALME-3M melanoma): 6.94 µM; TGI (MALME-3M melanoma): 16 µM and 14.3 µM; TGI (XF 498 CNS): 101 µM and 113 µM; TGI (COLO 205 colon): 18.2 µM and 18.7 µM; GI50 (SNB-19 CNS): 20.7 µM; TGI (SNB-19 CNS): 92.6 µM and 184 µM; TGI (DU-145 prostate): 32.5 µM; TGI (SN12C renal): 80.5 µM; GI50 (HCT-15 colon): 11.4 µM; TGI (HCT-15 colon): 55.9 µM and 79.4 µM; TGI (SF-295 CNS): 13.4 µM; GI50 (UO-31 renal): 9.39 µM; TGI (UO-31 renal): 19.5 µM and 22 µM; GI50 (MOLT-4 leukemia): 13.4 µM and 3.71 µM; GI50 (LOX IMVI melanoma): 4.32 µM; TGI (LOX IMVI melanoma): 10.1 µM and 6.8 µM; TGI (M14 melanoma): 2690 nM; GI50 (UACC-257 melanoma): 7.2 µM; TGI (UACC-257 melanoma): 17.6 µM and 14.6 µM; TGI (KM12 colon): 32.2 µM and 37.8 µM; GI50 (HCT-116 colon): 4.1 µM; TGI (HCT-116 colon): 8.87 µM and 11 µM; TGI (MDA-MB-231 breast): 138 µM; TGI (DMS 114 small cell lung): 82.6 µM; GI50 (OVCAR-8 ovarian): 12.3 µM; TGI (OVCAR-8 ovarian): 90.7 µM and 86.5 µM; TGI (ACHN renal): 20.4 µM; GI50 (OVCAR-3 ovarian): 12.1 µM and 2.94 µM; TGI (OVCAR-3 ovarian): 27.7 µM and 12.7 µM; GI50 (U251 CNS): 13.3 µM; TGI (U251 CNS): 49 µM and 55.6 µM; GI50 (SK-MEL-5 melanoma): 7.89 µM; TGI (SK-MEL-5 melanoma): 21.8 µM and 27 µM; TGI (CAKI-1 renal): 4.66 µM; TGI (RPMI-8226 leukemia): 8.5 µM; TGI (T-47D breast): 161 µM; TGI (HCC-2998 colon): 22.3 µM; TGI (SR leukemia): 41.6 µM; GI50 (NCI-H460 lung): 14.2 µM; TGI (NCI-H460 lung): 63.6 µM and 78.5 µM; TGI (M19-MEL melanoma): 25.6 µM; GI50 (K-562 leukemia): 1390 nM; TGI (K-562 leukemia): 363 µM and 84.6 µM; GI50 (OVCAR-5 ovarian): 11.5 µM; TGI (OVCAR-5 ovarian): 19.1 µM and 15 µM; GI50 (P388 leukemia): 1410 nM and 567 nM; TGI (BT-549 breast): 36.6 µM; GI50 (A549 NSCLC): 13.1 µM; TGI (A549 NSCLC): 49.6 µM and 57 µM; TGI (MDA-MB-435): 11.7 µM; TGI (TK-10 renal): 46.6 µM; GI50 (KM20L2 colon): 1320 nM; TGI (KM20L2 colon): 6.55 µM and 3.17 µM; GI50 (SN12K1 renal): 2690 nM; TGI (SN12K1 renal): 30.7 µM and 19.3 µM; TGI (DMS 273 small cell lung): 167 µM; GI50 (SK-MEL-2 melanoma): 19.8 µM; TGI (SK-MEL-2 melanoma): 65.2 µM and 42.4 µM
